Test results: ChEMBL document CHEMBL4616702 (ACS Med Chem Lett, 2020)
pEC50, pIC50: −log10 of the molar value.

How the values were obtained:
[1] = molecular target: T1, Oxysterols receptor LXR-alpha (Homo sapiens, UniProt Q13133); assay: Inverse agonist activity at LXRalpha (unknown origin)
T1 sequence (Q13133 whole entry): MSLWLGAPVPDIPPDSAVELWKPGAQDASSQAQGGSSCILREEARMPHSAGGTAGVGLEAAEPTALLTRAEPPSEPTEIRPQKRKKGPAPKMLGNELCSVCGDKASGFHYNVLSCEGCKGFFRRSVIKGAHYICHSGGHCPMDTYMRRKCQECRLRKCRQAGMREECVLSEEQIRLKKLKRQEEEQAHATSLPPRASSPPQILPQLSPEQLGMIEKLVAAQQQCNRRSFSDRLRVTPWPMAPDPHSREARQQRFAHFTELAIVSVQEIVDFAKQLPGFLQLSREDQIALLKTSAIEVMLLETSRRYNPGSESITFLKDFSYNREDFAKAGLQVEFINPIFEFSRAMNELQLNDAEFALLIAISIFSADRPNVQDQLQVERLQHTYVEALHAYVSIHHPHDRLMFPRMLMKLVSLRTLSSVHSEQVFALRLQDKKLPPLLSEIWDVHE

[2] = molecular target: T2, Nuclear receptor ROR-gamma (Mus musculus, UniProt P51450); assay: Inverse agonist activity at RORgammat in mouse whole blood assessed as suppression of […] secretion; type: tissue-based
T2 sequence (P51450 whole entry): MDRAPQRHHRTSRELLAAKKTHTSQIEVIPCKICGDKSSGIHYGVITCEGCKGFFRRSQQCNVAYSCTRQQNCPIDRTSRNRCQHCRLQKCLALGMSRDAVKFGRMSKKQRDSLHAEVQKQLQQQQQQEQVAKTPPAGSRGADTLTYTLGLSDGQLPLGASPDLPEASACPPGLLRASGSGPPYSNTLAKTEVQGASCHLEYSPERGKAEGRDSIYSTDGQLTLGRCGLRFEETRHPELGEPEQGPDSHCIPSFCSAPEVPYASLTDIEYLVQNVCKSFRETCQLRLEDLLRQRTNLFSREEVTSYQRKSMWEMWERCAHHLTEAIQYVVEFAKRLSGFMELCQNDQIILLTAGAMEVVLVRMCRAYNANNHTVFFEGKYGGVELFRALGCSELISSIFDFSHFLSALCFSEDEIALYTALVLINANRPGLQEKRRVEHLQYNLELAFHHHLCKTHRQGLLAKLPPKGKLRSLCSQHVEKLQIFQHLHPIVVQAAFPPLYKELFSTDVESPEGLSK

[3] = Fraction unbound in human plasma; type: ADME, cell-free
[4] = Oral bioavailability in dog at 1 mg/kg; type: ADME, organism-based, Canis lupus familiaris; settings: in vivo
Cytochrome P450 2C8 = molecular target: T3, Cytochrome P450 2C8 (Homo sapiens, UniProt P10632); assay: Inhibition of recombinant CYP2C8 (unknown origin); type: ADME
T3 sequence (P10632 whole entry): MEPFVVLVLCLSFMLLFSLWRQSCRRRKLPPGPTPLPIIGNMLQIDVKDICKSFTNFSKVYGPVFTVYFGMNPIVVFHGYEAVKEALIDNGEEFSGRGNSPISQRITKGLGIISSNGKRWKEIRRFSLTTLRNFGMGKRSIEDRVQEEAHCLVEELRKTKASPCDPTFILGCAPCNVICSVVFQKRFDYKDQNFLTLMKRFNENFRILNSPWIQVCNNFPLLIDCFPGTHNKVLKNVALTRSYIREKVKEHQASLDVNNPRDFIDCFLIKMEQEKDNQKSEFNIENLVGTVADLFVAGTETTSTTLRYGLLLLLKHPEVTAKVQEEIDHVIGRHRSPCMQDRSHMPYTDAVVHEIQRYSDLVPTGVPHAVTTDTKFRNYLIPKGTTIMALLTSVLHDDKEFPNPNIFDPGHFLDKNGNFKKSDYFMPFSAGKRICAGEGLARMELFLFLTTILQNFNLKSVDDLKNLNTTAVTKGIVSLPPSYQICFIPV

Cytochrome P450 3A4 = Cytochrome P450 3A4 (Homo sapiens, UniProt P08684); assay: Inhibition of recombinant CYP3A4 (unknown origin); type: ADME
[5] = molecular target: T4, Nuclear receptor subfamily 1 group I member 2 (Homo sapiens, UniProt O75469); assay: Inverse agonist activity at PXR (unknown origin)
T4 sequence (O75469 whole entry): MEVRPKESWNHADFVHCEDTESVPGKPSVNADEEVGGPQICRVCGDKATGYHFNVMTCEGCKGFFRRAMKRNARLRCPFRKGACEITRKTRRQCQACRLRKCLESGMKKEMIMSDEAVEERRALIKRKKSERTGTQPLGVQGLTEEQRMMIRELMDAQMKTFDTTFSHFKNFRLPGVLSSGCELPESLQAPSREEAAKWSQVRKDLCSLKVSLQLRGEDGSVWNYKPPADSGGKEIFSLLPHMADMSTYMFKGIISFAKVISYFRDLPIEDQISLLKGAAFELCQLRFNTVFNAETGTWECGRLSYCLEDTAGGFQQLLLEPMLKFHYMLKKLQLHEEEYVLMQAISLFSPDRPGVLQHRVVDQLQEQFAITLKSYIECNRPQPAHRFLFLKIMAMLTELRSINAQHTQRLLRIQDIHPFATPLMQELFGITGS

[6] = AUC (0 to 24 hrs) in dog at 1 mg/kg, po; type: ADME, organism-based, Canis lupus familiaris; parameters: time < 24 hr, dose 1 mg/kg, route oral; settings: in vivo
[7] = Clearance in cynomolgus monkey at 1 mg/kg, iv; type: ADME, organism-based, Macaca fascicularis; settings: in vivo
Cytochrome P450 1A2 = molecular target: T5, Cytochrome P450 1A2 (Homo sapiens, UniProt P05177); assay: Inhibition of recombinant CYP1A2 (unknown origin); type: ADME
T5 sequence (P05177 whole entry): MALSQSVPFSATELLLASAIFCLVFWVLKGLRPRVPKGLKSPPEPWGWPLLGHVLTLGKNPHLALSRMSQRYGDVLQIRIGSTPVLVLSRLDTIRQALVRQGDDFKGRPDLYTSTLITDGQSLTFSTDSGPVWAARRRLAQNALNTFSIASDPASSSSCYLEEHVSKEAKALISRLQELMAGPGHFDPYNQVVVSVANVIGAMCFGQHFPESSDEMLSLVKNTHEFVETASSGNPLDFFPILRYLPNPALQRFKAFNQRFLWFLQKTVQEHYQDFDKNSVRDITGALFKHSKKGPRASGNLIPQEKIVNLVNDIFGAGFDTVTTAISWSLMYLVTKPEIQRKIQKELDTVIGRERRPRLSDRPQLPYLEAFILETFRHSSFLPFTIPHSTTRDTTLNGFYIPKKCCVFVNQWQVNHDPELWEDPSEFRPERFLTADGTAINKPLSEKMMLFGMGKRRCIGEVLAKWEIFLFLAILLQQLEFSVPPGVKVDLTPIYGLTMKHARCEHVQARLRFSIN

[8] = Oral bioavailability in mouse at 4 mg/kg; type: ADME, organism-based; settings: in vivo
[9] = Half life in rat liver microsomes in presence of NADPH by LC/MS/MS metho; type: ADME, Microsome; settings: liver microsomes
[10] = Cmax in Balb/c mouse at 10 mg/kg, po; type: ADME, organism-based; parameters: dose 10 mg/kg, route oral; settings: in vivo
[11] = Half life in mouse liver microsomes in presence of NADPH by LC/MS/MS method; type: ADME, Microsome; settings: liver microsomes
[12] = AUC (0 to 24 hrs) in rat at 4 mg/kg, po; type: ADME, organism-based; parameters: time < 24 hr, dose 4 mg/kg, route oral; settings: in vivo
Cytochrome P450 2C9 = Cytochrome P450 2C9 (Homo sapiens, UniProt P11712); assay: Inhibition of recombinant CYP2C9 (unknown origin); type: ADME
[13] = Oral bioavailability in cynomolgus monkey at 1 mg/kg; type: ADME, organism-based, Macaca fascicularis; settings: in vivo

Chain of Cytochrome P450 3A4 (P08684 whole entry): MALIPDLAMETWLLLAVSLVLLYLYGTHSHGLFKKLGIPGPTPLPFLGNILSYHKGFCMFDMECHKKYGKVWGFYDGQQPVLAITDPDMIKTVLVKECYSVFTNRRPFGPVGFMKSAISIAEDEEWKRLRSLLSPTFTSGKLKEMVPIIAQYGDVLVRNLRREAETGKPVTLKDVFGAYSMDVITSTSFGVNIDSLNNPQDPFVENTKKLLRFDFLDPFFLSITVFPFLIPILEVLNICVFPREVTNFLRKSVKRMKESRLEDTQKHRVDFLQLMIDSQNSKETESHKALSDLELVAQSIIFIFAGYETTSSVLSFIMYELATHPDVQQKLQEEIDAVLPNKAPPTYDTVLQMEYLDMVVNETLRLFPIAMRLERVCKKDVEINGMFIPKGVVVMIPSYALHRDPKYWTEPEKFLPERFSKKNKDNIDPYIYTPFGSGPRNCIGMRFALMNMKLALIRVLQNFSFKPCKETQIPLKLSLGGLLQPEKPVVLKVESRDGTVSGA
Chain of Cytochrome P450 2C9 (P11712 whole entry): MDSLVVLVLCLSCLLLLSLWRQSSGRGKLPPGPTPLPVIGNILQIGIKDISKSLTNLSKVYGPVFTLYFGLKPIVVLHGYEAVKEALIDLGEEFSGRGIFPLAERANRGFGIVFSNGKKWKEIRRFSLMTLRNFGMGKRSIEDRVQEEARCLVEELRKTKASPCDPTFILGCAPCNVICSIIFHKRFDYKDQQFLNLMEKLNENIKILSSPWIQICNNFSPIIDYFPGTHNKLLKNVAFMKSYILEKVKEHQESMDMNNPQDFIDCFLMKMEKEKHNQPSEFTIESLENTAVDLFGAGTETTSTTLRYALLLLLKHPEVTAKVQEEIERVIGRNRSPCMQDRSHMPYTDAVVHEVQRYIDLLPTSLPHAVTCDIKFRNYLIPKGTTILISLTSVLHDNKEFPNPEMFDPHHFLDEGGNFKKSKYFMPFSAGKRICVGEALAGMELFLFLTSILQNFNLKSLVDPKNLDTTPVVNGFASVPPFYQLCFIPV

pEC50 [1]: < 5.12 | pEC50 [2]: 7.96 | fraction unbound [3]: 0.012 | bioavailability [4]: 100% | pIC50 (Cytochrome P450 2C8): 4.80 | pIC50 (Cytochrome P450 3A4): < 4.70 | pEC50 [5]: < 5.30 | AUC(0-t) at 24 h [6]: 120 µM·h | clearance [7]: 1.1 mL/min/kg | pIC50 (Cytochrome P450 1A2): < 4.70 | bioavailability [8]: 100% | half-life [9]: > 2 h | Cmax [10]: 11 µM | half-life [11]: > 2 h | AUC(0-t) at 24 h [12]: 64 µM·h | pIC50 (Cytochrome P450 2C9): < 4.70 | bioavailability [13]: 100%
SMILES: C[C@H]1C[C@H](C(=O)O)CC[C@H]1C(=O)N1CC[C@@]2(S(=O)(=O)c3ccc(F)cc3)c3ccc(C(F)(C(F)(F)F)C(F)(F)F)cc3CC[C@@H]12 [BMS-986251]
